From patent US20040072222A1, “Peptide analogues of myelin basic protein epitopes in the treatment of experimental autoimmune encephalomyelitis (eae) and multiple sclerosis (ms)” (priority 2003, published 2004)
Entries after “also recorded” stand apart in the source; their conditions may differ. Where two headings read alike, the source gives them in different places. Where no end group is shown, it is not given here.

Columns and labels:
[1] = test system: human peripheral blood T cells; assay: Activation and proliferation of human peripheral blood T cells; type: cell-based; details: for reversal of agonist effect on human T cell activation and proliferation: co-culturing of the cells with antagonist peptide; for biological activity in human peripheral blood T cells relative to linear analogue: compared with linear MBP72-85 / Ala81MBP72-85; for effect on human T cell activation and proliferation: agonist peptides, linear vs cyclic
EAE in Lewis rats [2] = details: cited from earlier work
[3] = test system: demyelination and inflammation in the spinal cord; assay: Histopathological examination of spinal cord sections (Luxol fast blue / Nuclear Fast Red); type: in vivo, Lewis rats; details: for spinal cord demyelination and inflammation on co-immunization with MBP72-85: day 15 after immunization
EAE in Lewis rats [4] = assay: Induction-inhibition and assessment of EAE (clinical score); type: in vivo; details: for inhibition of MBP72-85-induced EAE (clinical signs) on co-injection: co-injected with MBP72-85, Lewis rats; for induction of EAE: injected subcutaneously in Lewis rats; for peak clinical score, day following the initial injection / recovery from EAE: injected subcutaneously in Lewis rats (section B2); for inhibition of MBP72-85-induced EAE on co-injection: analogue 500 μg co-injected with MBP72-85 25 μg, FIG. 2/3

## Gln-Lys-Ser-Gln-Arg-Ser-Gln-Ala^81-GluAsn-Pro-Val [Ala^81MBP72-85]
[1]
  reversal of agonist effect on human T cell activation and proliferation: completely reversed
EAE in Lewis rats [2]; Tselios et al 1999
  prevention of clinical and histopathological manifestations of disease induced by c-MBP72-85: prevented
EAE in Lewis rats [2]; background, literature
  prevention of the induction of EAE by parent peptide MBP72-85: prevented the induction of EAE
[3]
  spinal cord demyelination and inflammation on co-immunization with MBP72-85: complete absence of inflammation and demyelination
EAE in Lewis rats [4]; co-injection with the inducing cyclic analogue
  suppression of EAE induced by cyclic analogue on co-injection: completely suppressed

## Gln^1-Lys^2-Ser^3-Gln^4-Arg^5-Ser^6-Gln^7-Ala^8-Glu^9-Asn^10-Pro^11-Val^12-NH2 [c-Ala^81MBP72-85]
[1]
  reversal of agonist effect on human T cell activation and proliferation: completely reversed
  biological activity in human peripheral blood T cells relative to linear analogue: comparable
[3]
  spinal cord demyelination and inflammation on co-immunization with MBP72-85: completely prevented
EAE in Lewis rats [4]
  inhibition of MBP72-85-induced EAE (clinical signs) on co-injection: completely prevented

## Gln^1-Lys^2-Ser^3-Gln^4-Arg^5-Ser^6-Gln^7-Asp^8-Glu^9-Asn^10-Pro^11-Val^12-NH2 [c-MBP72-85]
[1]
  effect on human T cell activation and proliferation: comparable effect
  biological activity in human peripheral blood T cells relative to linear analogue: comparable
EAE in Lewis rats [2]; background, literature
  induction of EAE: comparable potency to MBP72-85
EAE in Lewis rats [4]
  induction of EAE: induce EAE
  peak clinical score, day following the initial injection: 15 days
  recovery from EAE: eventual complete recovery in all animals
EAE in Lewis rats [4]; listed as 1
  induction of EAE: comparable with that of linear agonist

## QKSQRSQDENPV [MBP72-85, reference compound]
[1]
  effect on human T cell activation and proliferation: comparable effect
EAE in Lewis rats [2]; background, literature
  induction of EAE: induce EAE
[3]; day 15 / peak of disease
  spinal cord histopathology after immunization with the peptide alone: extensive perivascular and parenchymal inflammation; also recorded: multiple perivascular infiltrates
EAE in Lewis rats [4]; 25 μg peptide
  complete recovery in all animals: ≤ 18 days
  peak clinical score, day after the initial injection: 13 days
EAE in Lewis rats [4]
  induction of EAE: induced an acute monophasic disease; also recorded: induce EAE
  peak clinical score, day following the initial injection: 15 days
  recovery from EAE: eventual complete recovery in all animals

## Val-His-Phe-Phe-Arg^91-Asn-Ile-Val-Thr-Ala^96-Arg-Thr-Pro [[Arg^91,Ala^96]MBP87-99]
EAE in Lewis rats [4]
  inhibition of MBP72-85-induced EAE on co-injection: completely prevented
  inhibition of MBP72-85-induced EAE (clinical signs) on co-injection: completely prevented

## Val-His-Phe-Phe-Lys^91-Asn-Ile-Val-Thr-Ala^96-Arg-Thr-Pro^99 [cyclo-(91, 99) [Ala^96] MBP87-99]
EAE in Lewis rats [4]
  inhibition of MBP72-85-induced EAE on co-injection: low inhibitory activity

## Val^87-His-Phe-Phe-Arg^91-Asn-Ile-Val-Thr-Ala^96-Arg-Thr-Pro^99 [cyclo-(87, 99)[Arg^91,Ala^96]MBP87-99]
EAE in Lewis rats [4]
  inhibition of MBP72-85-induced EAE on co-injection: strong inhibitor
  inhibition of MBP72-85-induced EAE (clinical signs) on co-injection: completely prevented
